Experimental data taken from US9828333B2, “Compounds for the treatment of influenza” (CHRISTIAN-ALBRECHTS-UNIVERSITAT ZU KIEL, priority 2011, dated 2017).

Experiments:
[1] = system: influenza A virus A/342/2009 (H1N1; oseltamivir-resistant); assay type: cell-based
[2] = target: neuraminidase of influenza A virus A/342/2009 (H1N1, oseltamivir resistant) (UniProt P03468); assay type: biochemical

SMILES	90% inhibitory concentration, A/342/2009 [1]	95% inhibitory concentration (values in parentheses), A/342/2009 [1]	50% inhibitory concentration higher compared to zanamivir [2] [fold]
CCC(CC)O[C@@H]1C=C(C(=O)O)C[C@H](NC(C)=N)[C@H]1NC(C)=O [Compound 3]	16.0 (22.3) μM	16.0 (22.3) μM	50
CCC(CC)O[C@@H]1C=C(C(=O)O)C[C@H](NC(=N)N)[C@H]1NC(C)=O [Compound 9, (3R,4R,5S)-4-acetamido-5-(N-guanidino)-3-(1-ethylpropoxy)cyclohex-1-en-1-carboxylic acid]	3.0 (14.2) μM	3.0 (14.2) μM	
CCOC(=O)C1=C[C@@H](OC(CC)CC)[C@H](NC(C)=O)[C@@H](N)C1 [Oseltamivir, (3R,4R,5S)-4-acetamido-5-amino-3-(1-ethylpropoxy)cyclohex-1-en-1-carboxylic acid ethyl ester, reference compound]	resistant		
